What all share (assay type): biochemical
The target of one assay is SIK3 (Homo sapiens, UniProt Q9Y2K2). Briefly: SIK3 kinase assay, IMAP fluorescence polarization. Background: In fluorescence polarisation assays a small probe gives low polarisation when free and higher when bound to something large.
The target of the next assay is SIK1 (Homo sapiens, UniProt P57059). Put plainly: SIK1 kinase assay, IMAP fluorescence polarization.
Another assay has as its target SIK2 (Homo sapiens, UniProt Q9H0K1). Briefly: SIK2 kinase assay, IMAP fluorescence polarization.
The target in the next assay is Abl (Homo sapiens, UniProt P00519). Briefly: Abl kinase assay, IMAP fluorescence polarization.
Abl, sequence (P00519 whole entry): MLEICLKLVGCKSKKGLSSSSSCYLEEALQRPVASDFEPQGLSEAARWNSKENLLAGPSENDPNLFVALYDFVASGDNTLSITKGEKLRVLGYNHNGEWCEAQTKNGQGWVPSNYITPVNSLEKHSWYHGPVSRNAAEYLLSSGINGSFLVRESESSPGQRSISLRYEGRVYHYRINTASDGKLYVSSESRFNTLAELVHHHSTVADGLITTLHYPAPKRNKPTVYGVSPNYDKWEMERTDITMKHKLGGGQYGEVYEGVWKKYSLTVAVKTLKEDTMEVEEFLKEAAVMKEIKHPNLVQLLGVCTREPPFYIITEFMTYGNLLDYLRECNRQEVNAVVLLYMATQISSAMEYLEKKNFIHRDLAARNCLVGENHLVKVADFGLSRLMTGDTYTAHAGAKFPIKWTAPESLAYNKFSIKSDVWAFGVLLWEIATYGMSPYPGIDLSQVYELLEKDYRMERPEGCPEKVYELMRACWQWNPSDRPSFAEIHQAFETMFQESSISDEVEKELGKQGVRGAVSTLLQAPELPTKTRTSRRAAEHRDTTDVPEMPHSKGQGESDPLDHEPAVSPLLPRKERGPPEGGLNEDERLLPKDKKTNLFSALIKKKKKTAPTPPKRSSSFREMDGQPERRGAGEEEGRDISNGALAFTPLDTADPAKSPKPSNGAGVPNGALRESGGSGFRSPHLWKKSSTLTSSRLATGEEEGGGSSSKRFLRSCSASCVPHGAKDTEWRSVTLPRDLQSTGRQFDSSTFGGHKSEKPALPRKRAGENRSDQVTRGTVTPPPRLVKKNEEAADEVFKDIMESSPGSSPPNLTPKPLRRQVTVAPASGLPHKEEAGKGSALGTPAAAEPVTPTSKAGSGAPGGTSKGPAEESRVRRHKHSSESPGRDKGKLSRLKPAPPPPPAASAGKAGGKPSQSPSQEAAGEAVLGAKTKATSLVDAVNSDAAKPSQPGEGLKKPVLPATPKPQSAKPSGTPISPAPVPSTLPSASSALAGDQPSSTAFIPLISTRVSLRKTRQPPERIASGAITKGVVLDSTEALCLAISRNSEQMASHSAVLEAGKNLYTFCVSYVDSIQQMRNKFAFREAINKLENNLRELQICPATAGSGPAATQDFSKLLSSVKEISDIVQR
The target in another assay is Src (Homo sapiens, UniProt P12931). Put plainly: Src kinase assay, IMAP fluorescence polarization.
Src, sequence (P12931 whole entry): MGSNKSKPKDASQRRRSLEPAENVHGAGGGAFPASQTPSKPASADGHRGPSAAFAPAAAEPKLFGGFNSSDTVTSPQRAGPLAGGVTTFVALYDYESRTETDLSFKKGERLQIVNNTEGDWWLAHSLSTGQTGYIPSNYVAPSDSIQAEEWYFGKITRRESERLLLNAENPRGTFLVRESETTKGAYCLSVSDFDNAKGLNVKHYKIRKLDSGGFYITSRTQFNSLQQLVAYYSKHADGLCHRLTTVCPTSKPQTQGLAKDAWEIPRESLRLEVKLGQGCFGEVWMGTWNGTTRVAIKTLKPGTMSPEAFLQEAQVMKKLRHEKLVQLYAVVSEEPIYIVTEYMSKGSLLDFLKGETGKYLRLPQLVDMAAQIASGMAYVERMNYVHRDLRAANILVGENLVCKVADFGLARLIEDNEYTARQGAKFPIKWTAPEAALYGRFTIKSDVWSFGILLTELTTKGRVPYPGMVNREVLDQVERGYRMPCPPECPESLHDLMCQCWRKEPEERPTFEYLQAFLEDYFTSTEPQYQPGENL

SIK3, sequence (Q9Y2K2 whole entry): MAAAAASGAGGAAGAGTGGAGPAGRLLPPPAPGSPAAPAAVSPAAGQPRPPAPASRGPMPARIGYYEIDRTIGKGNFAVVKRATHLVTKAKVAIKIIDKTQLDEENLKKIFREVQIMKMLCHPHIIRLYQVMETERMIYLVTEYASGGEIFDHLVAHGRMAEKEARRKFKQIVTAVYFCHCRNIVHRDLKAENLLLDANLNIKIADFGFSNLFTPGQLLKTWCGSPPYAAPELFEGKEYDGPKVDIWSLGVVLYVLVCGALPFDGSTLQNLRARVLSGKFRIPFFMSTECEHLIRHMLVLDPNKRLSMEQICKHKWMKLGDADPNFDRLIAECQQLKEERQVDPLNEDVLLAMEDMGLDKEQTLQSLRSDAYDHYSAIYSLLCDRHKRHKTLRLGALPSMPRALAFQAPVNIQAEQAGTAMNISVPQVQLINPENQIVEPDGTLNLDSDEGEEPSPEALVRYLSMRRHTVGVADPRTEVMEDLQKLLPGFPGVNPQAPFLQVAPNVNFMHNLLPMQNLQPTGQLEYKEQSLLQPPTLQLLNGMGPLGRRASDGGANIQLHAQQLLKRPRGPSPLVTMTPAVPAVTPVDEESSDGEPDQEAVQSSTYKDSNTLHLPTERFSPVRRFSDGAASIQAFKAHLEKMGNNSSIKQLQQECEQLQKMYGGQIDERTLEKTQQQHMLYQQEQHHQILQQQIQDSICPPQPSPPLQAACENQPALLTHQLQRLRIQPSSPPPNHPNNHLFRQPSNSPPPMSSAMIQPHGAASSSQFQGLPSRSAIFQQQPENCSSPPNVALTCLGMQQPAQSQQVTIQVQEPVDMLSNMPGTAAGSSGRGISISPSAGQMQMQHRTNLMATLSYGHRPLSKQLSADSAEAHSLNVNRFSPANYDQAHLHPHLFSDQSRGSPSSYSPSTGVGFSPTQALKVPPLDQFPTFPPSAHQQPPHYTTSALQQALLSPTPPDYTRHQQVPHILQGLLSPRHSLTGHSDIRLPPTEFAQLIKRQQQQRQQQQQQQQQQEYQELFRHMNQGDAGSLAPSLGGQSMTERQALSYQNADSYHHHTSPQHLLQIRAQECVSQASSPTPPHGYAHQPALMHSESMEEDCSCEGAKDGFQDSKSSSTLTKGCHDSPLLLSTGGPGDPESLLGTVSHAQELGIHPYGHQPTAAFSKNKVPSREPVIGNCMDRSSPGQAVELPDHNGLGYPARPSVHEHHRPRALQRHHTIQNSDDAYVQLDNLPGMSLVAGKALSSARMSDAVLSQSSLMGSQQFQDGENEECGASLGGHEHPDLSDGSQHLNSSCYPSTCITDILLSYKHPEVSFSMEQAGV
SIK2, sequence (Q9H0K1 whole entry): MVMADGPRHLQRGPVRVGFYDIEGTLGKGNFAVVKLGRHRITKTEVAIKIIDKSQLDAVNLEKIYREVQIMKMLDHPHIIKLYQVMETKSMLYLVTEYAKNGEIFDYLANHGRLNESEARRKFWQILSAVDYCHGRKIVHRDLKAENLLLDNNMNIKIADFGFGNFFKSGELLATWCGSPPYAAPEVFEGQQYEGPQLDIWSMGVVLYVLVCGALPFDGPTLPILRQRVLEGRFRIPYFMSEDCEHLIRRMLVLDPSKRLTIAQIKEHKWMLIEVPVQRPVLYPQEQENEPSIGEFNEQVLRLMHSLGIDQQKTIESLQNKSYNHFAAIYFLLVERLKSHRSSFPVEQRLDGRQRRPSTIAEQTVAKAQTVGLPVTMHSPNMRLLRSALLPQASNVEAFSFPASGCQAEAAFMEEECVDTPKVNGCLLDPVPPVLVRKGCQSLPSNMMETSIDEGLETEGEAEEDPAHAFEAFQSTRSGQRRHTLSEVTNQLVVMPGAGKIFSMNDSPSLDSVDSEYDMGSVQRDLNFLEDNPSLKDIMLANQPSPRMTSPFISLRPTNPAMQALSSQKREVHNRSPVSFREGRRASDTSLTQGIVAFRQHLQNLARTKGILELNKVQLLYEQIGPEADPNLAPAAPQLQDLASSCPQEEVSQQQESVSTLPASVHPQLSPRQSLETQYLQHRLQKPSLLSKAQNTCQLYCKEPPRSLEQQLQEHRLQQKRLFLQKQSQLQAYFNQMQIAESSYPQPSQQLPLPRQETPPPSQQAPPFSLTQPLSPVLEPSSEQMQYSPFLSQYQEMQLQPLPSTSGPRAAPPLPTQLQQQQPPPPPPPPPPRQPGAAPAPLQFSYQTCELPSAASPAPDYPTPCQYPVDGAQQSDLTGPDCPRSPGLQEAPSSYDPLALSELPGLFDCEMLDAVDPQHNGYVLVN
SIK1, sequence (P57059 whole entry): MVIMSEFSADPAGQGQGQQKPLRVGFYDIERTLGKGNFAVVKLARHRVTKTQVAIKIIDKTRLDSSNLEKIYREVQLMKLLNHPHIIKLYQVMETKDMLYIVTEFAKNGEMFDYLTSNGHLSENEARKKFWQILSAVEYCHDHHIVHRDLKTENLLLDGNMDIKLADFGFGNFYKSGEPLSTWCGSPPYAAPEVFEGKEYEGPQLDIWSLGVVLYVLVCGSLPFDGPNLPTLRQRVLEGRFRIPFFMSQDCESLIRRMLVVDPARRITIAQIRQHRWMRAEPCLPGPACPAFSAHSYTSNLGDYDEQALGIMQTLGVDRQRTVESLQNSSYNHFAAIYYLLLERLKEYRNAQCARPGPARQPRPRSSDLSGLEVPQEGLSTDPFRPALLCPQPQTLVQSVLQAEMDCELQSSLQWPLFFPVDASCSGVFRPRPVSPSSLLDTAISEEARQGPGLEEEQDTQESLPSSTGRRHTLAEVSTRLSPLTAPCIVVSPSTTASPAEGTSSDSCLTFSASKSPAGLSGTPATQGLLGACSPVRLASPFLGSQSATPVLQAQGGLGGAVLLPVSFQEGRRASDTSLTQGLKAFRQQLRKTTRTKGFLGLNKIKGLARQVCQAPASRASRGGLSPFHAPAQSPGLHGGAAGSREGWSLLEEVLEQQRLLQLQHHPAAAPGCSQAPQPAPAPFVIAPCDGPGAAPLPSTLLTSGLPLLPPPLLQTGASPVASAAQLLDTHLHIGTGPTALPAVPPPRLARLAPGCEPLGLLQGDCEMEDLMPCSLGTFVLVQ

On to `Cc1cccc(F)c1N1Cc2cnc(N)cc2N(C2CCNCC2)C1=O` [Example 1, 7-Amino-3-(2-fluoro-6-methyl-phenyl)-1-(4-piperidyl)-4H-pyrido[4,3-d]pyrimidin-2-one], for which the Ki on SIK3 is 1.79 nM; on SIK1, 1.68 nM; at SIK2, 0.248 nM; at Abl, > 1000 nM; at Src, > 1000 nM.

Turning to `Cc1cccc(F)c1N1Cc2cnc(N)cc2N(C2CCN(C)CC2)C1=O` [Example 3, 7-Amino-3-(2-fluoro-6-methyl-phenyl)-1-(1-methyl-4-piperidyl)-4H-pyrido[4,3-d]pyrimidin-2-one], the Ki came out at 0.975 nM at SIK3; 0.632 nM on SIK1; 0.239 nM at SIK2; 122 nM at Abl; 387 nM at Src.

Regarding `Cc1cccc(Cl)c1N1Cc2cnc(N)cc2N(C2CCNCC2)C1=O` [Example 6, 7-amino-3-(2-chloro-6-methyl-phenyl)-1-(4-piperidyl)-4H-pyrido[4,3-d]pyrimidin-2-one], the Ki turned out to be 10.8 nM on SIK3; 3.35 nM on SIK1; 3.09 nM at SIK2; 108 nM on Abl; 216 nM at Src.

Take `Cc1cccc(Cl)c1N1Cc2cnc(N)cc2N(C2CCN(C)CC2)C1=O` [Example 7, 7-amino-3-(2-chloro-6-methyl-phenyl)-1-(1-methyl-4-piperidyl)-4H-pyrido[4,3-d]pyrimidin-2-one]: the Ki on SIK3 is 9.46 nM; at SIK1, 3.21 nM; on SIK2, 2.49 nM; on Abl, 271 nM; at Src, 263 nM.

Regarding `Cc1cccc(F)c1N1Cc2cnc(N)nc2N(C2CCNCC2)C1=O` [Example 11, 7-Amino-3-(2-fluoro-6-methyl-phenyl)-1-(4-piperidyl)-4H-pyrimido[4,5-d]pyrimidin-2-one], the Ki at SIK3 was 4.44 nM; at SIK1 it was 2.36 nM; on SIK2, 0.481 nM; at Abl, 171 nM; on Src, 464 nM.

Turning to `Cc1cccc(Cl)c1N1Cc2cnc(N)nc2N(C2CCNCC2)C1=O` [Example 15, 7-Amino-3-(2-chloro-6-methyl-phenyl)-1-(4-piperidyl)-4H-pyrimido[4,5-d]pyrimidin-2-one], the Ki at SIK3 was 18.7 nM; on SIK1 it was 6.23 nM; on SIK2, 1.63 nM; on Abl, > 1000 nM; on Src, 138 nM.

Take `Cc1cccc(F)c1N1Cc2cncnc2N(C2CCNCC2)C1=O` [Example 16, 3-(2-fluoro-6-methyl-phenyl)-1-(4-piperidyl)-4H-pyrimido[4,5-d]pyrimidin-2-one]: the Ki at SIK3 is 489 nM; at SIK1 it was 223 nM; on SIK2, 92.2 nM; at Abl, 4180 nM; on Src, > 100000 nM.

With `Cc1cccc(Cl)c1N1Cc2cncnc2N(C2CCNCC2)C1=O` [Example 17, 3-(2-chloro-6-methyl-phenyl)-1-(4-piperidyl)-4H-pyrimido[4,5-d]pyrimidin-2-one], the Ki was 1400 nM on SIK3; 273 nM on SIK1; 128 nM on SIK2; 3950 nM at Abl; > 100000 nM at Src.

On to `Cc1cccc(F)c1N1Cc2cnccc2N(C2CCNCC2)C1=O` [Example 18, 3-(2-Fluoro-6-methyl-phenyl)-1-(4-piperidyl)-4H-pyrido[4,3-d]pyrimidin-2-one], for which the Ki was found to be 21.2 nM at SIK3; 12 nM at SIK1; 8.2 nM on SIK2; 512 nM at Abl; 1900 nM on Src.

Consider `Cc1cccc(F)c1N1Cc2cnc(N)nc2N(C2CCN(C)CC2)C1=O` [Example 19, 7-Amino-3-(2-fluoro-6-methyl-phenyl)-1-(1-methyl-4-piperidyl)-4H-pyrimido[4,5-d]pyrimidin-2-one], for which the Ki at SIK3 is 4.12 nM; at SIK1 it was 9.73 nM; at SIK2 it was 0.739 nM; at Abl it was > 1000 nM; on Src it was > 1000 nM.

Broadly, the Ki is a dissociation constant, usually derived from enzyme kinetics or from competition with a known ligand.
